# From US9695155B2, “Herbicidal substituted pyrimidinyloxy benzene compounds” (E. I. DU PONT DE NEMOURS AND COMPANY, priority 2013, dated 2017)
# Columns and labels:
# ragweed [1] = assay: Test A preemergence; format: in vivo, Ambrosia elatior
# Summary of the method: (§1)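 Injury scores run from 0, no effect, to 100, complete control, judged by eye against untreated plants roughly 10 days after treatment. Chemicals carried a surfactant in a non-phytotoxic solvent and went onto loam–sand soil preemergence or onto one- to two-leaf seedlings postemergence.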
# ragweed [2] = assay: Test A postemergence; format: in vivo, Ambrosia elatior
# Summary of the method: as §1
# Italian ryegrass [3] = assay: Test A postemergence; format: in vivo, Lolium multiflorum
# Summary of the method: as §1
# galium = assay: Test A postemergence; format: in vivo, Galium aparine
# Summary of the method: as §1
# blackgrass = assay: Test C preemergence; format: in vivo, Alopecurus myosuroides; details: for Blackgrass plant response rating: preemergence
# Summary of the method: (§2)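 Visual ratings on a 0–100 scale (100 = complete control) were made versus untreated controls after 13–15 greenhouse days. Chemicals in a surfactant-containing non-phytotoxic solvent were applied either preemergence to seeds in loam–sand soil or postemergence to 1- to 4-leaf plants 2–18 cm tall.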
# Italian ryegrass [4] = assay: Test C preemergence; format: in vivo, Lolium multiflorum; details: for Ryegrass, Italian plant response rating: preemergence
# Summary of the method: as §2
# corn = assay: Test C preemergence; format: in vivo, Zea mays; details: for Corn plant response rating: preemergence
# Summary of the method: as §2
# large (Lg) crabgrass = assay: Test C preemergence; format: in vivo, Digitaria sanguinalis; details: for Crabgrass, Large plant response rating: preemergence
# Summary of the method: as §2
# giant foxtail = assay: Test C preemergence; format: in vivo, Setaria faberii; details: for Foxtail, Giant plant response rating: preemergence
# Summary of the method: as §2
# lambsquarters = assay: Test C preemergence; format: in vivo, Chenopodium album; details: for Lambsquarters plant response rating: preemergence
# Summary of the method: as §2
# morningglory = assay: Test C preemergence; format: in vivo, Ipomoea coccinea; details: for Morningglory plant response rating: preemergence
# Summary of the method: as §2
# yellow nutsedge = assay: Test C preemergence; format: in vivo, Cyperus esculentus; details: for Nutsedge, Yellow plant response rating: preemergence
# Summary of the method: as §2
# pigweed = assay: Test C preemergence; format: in vivo, Amaranthus retroflexus; details: for Pigweed plant response rating: preemergence
# Summary of the method: as §2
# ragweed [5] = assay: Test C preemergence; format: in vivo, Ambrosia elatior; details: for Ragweed plant response rating: preemergence
# Summary of the method: as §2
# soybean = assay: Test C preemergence; format: in vivo, Glycine max; details: for Soybean plant response rating: preemergence
# Summary of the method: as §2
# barnyardgrass = assay: Test C preemergence; format: in vivo, Echinochloa crus-galli; details: for Barnyardgrass plant response rating: preemergence
# Summary of the method: as §2
# oilseed rape = assay: Test C preemergence; format: in vivo, Brassica napus; details: for Oilseed Rape plant response rating: preemergence
# Summary of the method: as §2
# velvetleaf = assay: Test C preemergence; format: in vivo, Abutilon theophrasti; details: for Velvetleaf plant response rating: preemergence
# Summary of the method: as §2
# [6] = 500 g ai/ha, 0 to 100 scale where 0 is no effect and 100 is complete control
# [7] = 125 g ai/ha, 0 to 100 scale, 0 no effect, 100 complete control
# [8] = 16 g ai/ha, scale 0 to 100 (0 no effect, 100 complete control)
# [9] = 125 g ai/ha, scale 0 (no effect) to 100 (complete control)
# [10] = Preemergence, 62 g ai/ha, scale 0 to 100, 0 no effect, 100 complete control
smiles,measurement,setting,value
N#Cc1cnn(-c2c(Oc3ncc(F)cn3)cccc2C(F)F)c1 [Compound 240],Ragweed plant response rating (0 to 100 scale),ragweed [1]; 125 g ai/ha,90
same,Ragweed plant response rating,ragweed [1]; [6],100
same,"Plant response rating, Ragweed",ragweed [2]; [7],100
same,"Plant response rating, Ragweed",ragweed [2]; [6],100
same,"Plant response rating, Ryegrass, Italian",Italian ryegrass [3]; [7],40
same,"Plant response rating, Ryegrass, Italian",Italian ryegrass [3]; [6],100
same,"Plant response rating, Galium",galium; [7],100
same,"Plant response rating, Galium",galium; [6],100
same,Blackgrass plant response rating,blackgrass; [8],0
same,Blackgrass plant response rating,blackgrass; [9],95
same,"Plant response rating, Blackgrass",blackgrass; [10],95
same,"Ryegrass, Italian plant response rating",Italian ryegrass [4]; [8],0
same,"Ryegrass, Italian plant response rating",Italian ryegrass [4]; [9],50
same,"Plant response rating, Ryegrass, Italian",Italian ryegrass [4]; [10],0
same,Corn plant response rating,corn; [8],5
same,Corn plant response rating,corn; [9],35
same,"Plant response rating, Corn",corn; [10],5
same,"Crabgrass, Large plant response rating",large (Lg) crabgrass; [8],75
same,"Crabgrass, Large plant response rating",large (Lg) crabgrass; [9],100
same,"Plant response rating, Crabgrass, Large",large (Lg) crabgrass; [10],100
same,"Foxtail, Giant plant response rating",giant foxtail; [8],10
same,"Foxtail, Giant plant response rating",giant foxtail; [9],100
same,"Plant response rating, Foxtail, Giant",giant foxtail; [10],100
same,Lambsquarters plant response rating,lambsquarters; [8],70
same,Lambsquarters plant response rating,lambsquarters; [9],100
same,"Plant response rating, Lambsquarters",lambsquarters; [10],100
same,Morningglory plant response rating,morningglory; [8],15
same,Morningglory plant response rating,morningglory; [9],75
same,"Plant response rating, Morningglory",morningglory; [10],75
same,"Nutsedge, Yellow plant response rating",yellow nutsedge; [8],0
same,"Nutsedge, Yellow plant response rating",yellow nutsedge; [9],40
same,"Plant response rating, Nutsedge, Yellow",yellow nutsedge; [10],15
same,Pigweed plant response rating,pigweed; [8],5
same,Pigweed plant response rating,pigweed; [9],65
same,"Plant response rating, Pigweed",pigweed; [10],55
same,Ragweed plant response rating,ragweed [5]; [8],10
same,Ragweed plant response rating,ragweed [5]; [9],80
same,"Plant response rating, Ragweed",ragweed [5]; [10],100
same,Soybean plant response rating,soybean; [8],40
same,Soybean plant response rating,soybean; [9],98
same,"Plant response rating, Soybean",soybean; [10],85
same,Barnyardgrass plant response rating,barnyardgrass; [8],5
same,Barnyardgrass plant response rating,barnyardgrass; [9],100
same,"Plant response rating, Barnyardgrass",barnyardgrass; [10],60
same,Oilseed Rape plant response rating,oilseed rape; [8],70
same,Oilseed Rape plant response rating,oilseed rape; [9],100
same,"Plant response rating, Oilseed Rape",oilseed rape; [10],100
same,Velvetleaf plant response rating,velvetleaf; [8],25
same,Velvetleaf plant response rating,velvetleaf; [9],85
same,"Plant response rating, Velvetleaf",velvetleaf; [10],80
